Test results from a melting point compilation (Tetko et al.; mined from patent text by program, amines drawn as free bases though some values may be those of a salt).

Structure (SMILES) | melting point
O=C(O)CC1COc2cc(Cl)c(Cl)cc2O1 (stereo unspecified) | 145 to 147 °C
N#CN(Cc1ccc([N+](=O)[O-])cc1)C(=O)CCCC(=O)N(C#N)Cc1ccc([N+](=O)[O-])cc1 | 146 to 148 °C
COC(=N[N+](=O)[O-])NCc1ccc(Cl)nc1 | 112 to 113 °C
CC(=O)Nc1ccc2[nH]c(=O)c(=O)n(CC(C)(C)C)c2c1 | 294 to 295 °C
COc1ccc2nc(C)cc(NNC(=O)Nc3ccc(N(CCCl)CCCl)cc3)c2c1 | 184 to 186 °C
COc1ccc(/C=C/CN2CCN(C3c4ccccc4CCc4ncccc43)CC2)cc1[N+](=O)[O-] (stereo unspecified) | 159 to 161 °C
Cc1nc(N2CCN(CC3CC3)C2=O)sc1C(=O)NCc1ncco1 | 172 to 174 °C
CCCCC1(N(C)C)CCC(c2[nH]c3ccccc3c2Cc2ccccc2)CC1 (stereo unspecified) | 72 to 78 °C
C=C1C(O)C2(O)OCC34C(CC5C(C)=CC(=O)C(O)C5(C)C23)OC(=O)CC14 (stereo unspecified) | 235 to 237 °C
COc1ccc(C(C)N(C)CCCCOc2ccc(S(=O)(=O)c3c(C(C)C)cn4ccccc34)cc2)cc1OC (stereo unspecified) | 84 to 86 °C
COC(=O)Cc1ccc(OCCNC(=O)C2Cc3ccccc3N2S(=O)(=O)c2ccc(-c3ccc(C)cc3)c(C(F)(F)F)c2)cc1 (stereo unspecified) | 60 °C
NC(=O)C(F)(F)C1(c2ccc(Cl)cc2Cl)CO1 (stereo unspecified) | 100 to 101 °C
COc1ccccc1N1CCN(CCNC(=O)c2nsc3ccccc23)CC1 | 107 to 110 °C
Cc1ccc(S(=O)(=O)Oc2cccnc2)cc1 | 76 to 78 °C
O=C(O)CCC(=O)c1ccc(-n2cnc3c2CCCC3)cc1 | 234 to 235 °C
CC(c1n[nH]c(=O)[nH]1)N1CCC[C@H](O[C@H](C)c2cc(C(F)(F)F)cc(C(F)(F)F)c2)[C@@H]1c1ccccc1 (stereo partly specified) | 257 to 258 °C
CSc1ccc(C(=O)CC(F)(F)F)cc1 | 118 to 120 °C
COC1=CC(O)=CC(OC)C1(OC)c1cc2cccnc2[nH]1 (stereo unspecified) | 174 to 176 °C
COc1ccc(OC)c2c1C(=O)C=C(SCCCCO)C2=O | 122 to 123 °C
CNC(=O)NC1CCC(OC)c2sccc21 (stereo unspecified) | 152 to 159 °C
CCCCOc1ccc(-c2ncc(C(=O)OCC)c(Cl)n2)cc1 | 79 °C
CC1(C)CCC(C)(C)c2cc(C(=O)C=Cc3ccc(C(=O)O)c(O)c3)ccc21 | 260 to 261 °C
O=C1OC(CCC#Cc2ccccc2)C(O)=C1O (stereo unspecified) | 145 to 146 °C
CCc1nc2c(N)nc3cc(OCC(=O)N4CCOCC4)ccc3c2n1CCOc1ccccc1 | 208 to 209 °C
O=C(Nc1ccc(-n2nc(C(F)(F)F)cc2Br)cc1)c1ccncc1F | 143 to 144 °C
O=C1c2ccc(O)cc2C(=O)N1c1ccc(C2(c3ccc(N4C(=O)c5ccc(O)cc5C4=O)cc3)c3ccccc3-c3ccccc32)cc1 | > 300 °C
CCCCn1nc(SC2CCC(CC(=O)O)CC2)c(C(=O)O)c1Cc1cc2c(cc1Cl)OCO2 (stereo unspecified) | 100 °C
Clc1ncccc1OCC1CO1 (stereo unspecified) | 132 °C
CCc1scc(C(=O)O)c1N | 132 to 133 °C
Fc1ccc(-c2ccc3nnn(Cc4ccc5ncccc5c4)c3n2)cc1 | 153 to 156 °C

Now from value to molecule:

melting point | Structure (SMILES)
158 °C | CC1(C)CC(=O)c2cc(O)ccc2O1
323 to 325 °C | COc1cccc(NC(=O)NCc2ccc3c(c2)C(=O)N(C2CCC(=O)NC2=O)C3=O)c1 (stereo unspecified)
153 to 154 °C | Cc1ccc(C2=C(C(=O)O)N(CC(C)C)Cc3ccc(OCc4ccccc4)cc32)cc1
111 to 113 °C | CC1(C)CC(=O)c2c(Cc3ccccc3)cn(-c3ccccn3)c2C1
189 to 190 °C | O=S(=O)(O)CC(O)CNCC(O)O (stereo unspecified)
111 to 112 °C | COc1ccccc1SCC1NCCS1 (stereo unspecified)
132 to 133 °C | COc1ccc(CNC(=O)N(C)O)cc1OC
77 to 78 °C | CCn1c(=O)c2c(ncn2CCCCC(O)CO)n(CC)c1=O (stereo unspecified)
117 to 118 °C | Fc1ccccc1CNc1nc(Cl)ncc1F
214 °C | CC(=O)c1ccc(-c2cc(-c3c(-c4ccccn4)nc4ccccn34)ccn2)cc1
124 to 125 °C | CN(C)CCCN1C(=O)Nc2ccccc2C1C1CCCCC1 (stereo unspecified)
197 to 198 °C | Cc1nc2c(Cl)nccc2n1C
130 to 132 °C | COC(=O)[C@H](CC(C)C)NC(=O)[C@@H](O)[C@@H](Cc1ccc(SC)cc1)NC(=O)OCc1ccccc1
190 to 191 °C | COc1ccccc1Nc1nnc(Cc2ccncc2)c2ccccc12
131 °C | CCc1ccc(CCc2ccc(-c3ccc(OC(F)F)cc3)cc2)cc1
206 to 207 °C | COc1cc(Nc2nn(Cc3ccccc3)c(=O)c3ccccc23)cc(OC)c1OC
330 to 333 °C | N#Cc1cccc(NC(=O)NCc2cccc3c2CN(C2CCC(=O)NC2=O)C3=O)c1 (stereo unspecified)
158 to 159 °C | O=C(NCCO)c1cccc(-c2ccc3c(c2)N(Cc2cccc(Cl)c2Cl)CC3)c1
263 to 266 °C | O=c1[nH]c2ncc(-c3ccc(-c4nc[nH]n4)cc3)nc2n1CCC1CCOCC1
198 to 199 °C | Cn1nc(-c2cccc(C(F)(F)F)c2)cc1C(=O)O
68 to 70 °C | CN(C)CCCCC(=O)N1CCC(c2[nH]nc3c2C(=O)c2c(NC(=O)NN4CCOCC4)cccc2-3)CC1

melting point | Structure (SMILES)
134 to 135 °C | Cc1nnc(-c2ccc3occ(-c4cnn(Cc5ccccn5)c4)c3c2)o1
168 °C | Cc1cc(Nc2ccnc(Nc3ccc(S(=O)(=O)N(C)C4CCN(Cc5csnn5)CC4)cc3)n2)ccc1F
72 to 73 °C | N#CC(c1cccc(Cl)c1)N1CCOCC1 (stereo unspecified)
> 300 °C | N#Cc1ccc2[nH]c(C(N)=O)cc2c1
194 to 196 °C | O=c1c(OCc2nnn[nH]2)coc2ccccc12
244 °C | O=C1NC(=NCc2ccccc2)C(c2ccc(Br)cc2)N1c1ccc2[nH]cnc2c1 (stereo unspecified)
135 to 136 °C | COc1cc2c(cc1OC)C(C(S)(C#N)c1ccc(Cl)cc1)=NCC2 (stereo unspecified)
122 to 124 °C | OC1CCN(c2ncc(-c3ccc(Cl)cc3Cl)cn2)CC1
106 to 107 °C | C=CCOC(=O)CC[C@H](NC(=O)Nc1ccc(COC(=O)Oc2ccc([N+](=O)[O-])cc2)cc1)C(=O)OCC=C
163 to 164 °C | NNC(=O)C(Cc1cccs1)NC(=O)[C@H](Cc1cccc2ccccc12)NC(=O)OCc1ccccc1 (mixture of isomers)
122 to 126 °C | CC(CC(=O)O)C(=O)c1ccc(O)cc1 (stereo unspecified)
148 to 150 °C | NS(=O)(=O)c1cc2c(s1)CCC(=O)C2
188 to 189 °C | COc1cc(OC)cc(N2CCN(C(=O)N(CC(=O)O)c3cc(C)c(C)cc3OC)CC2)c1
238 to 240 °C | COC(=O)c1cc(C)cc(NC(=O)c2nnn[nH]2)c1O
158 to 160 °C | CN(C)C(=O)C(CCO)C1(C)OCCc2c1[nH]c1ccccc21 (stereo unspecified)
95 to 99 °C | NC(=O)N(O)CCn1cc(Sc2ccccc2)c2ccccc21
159 °C | COc1cccc(NC(=O)C(C)(C)C)c1C(C)O (stereo unspecified)
158 °C | CC[C@H](O)CC(=O)N[C@H]1CC[C@H](CCN2CCN(c3nccc4c3CCO4)CC2)CC1
174 °C | CC(O)c1ccc2c(c1)CCC(=O)N2 (stereo unspecified)
310 to 317 °C | O=C1N=C(N2CCOCC2)SC1c1cncc(-c2cc(F)c(O)c(C34CC5CC(CC(C5)C3)C4)c2)c1 (stereo unspecified)
